Each structure is given as a SMILES string. The source made the active and inactive calls.

The AC50 is the midpoint of the concentration-response curve, whichever way the signal moves. By CC50 is commonly meant the concentration that lowers cell viability or growth by half. By IC50 is commonly meant the concentration that inhibits the measured activity by half. Usually Ki stands for a dissociation constant, usually derived from enzyme kinetics or from competition with a known ligand. In general, EC50 refers to the midpoint of the concentration-response curve.

Test [1] has as its target Paired box protein Pax-8 (Homo sapiens, UniProt Q06710). The test can be described thus: inhibitors of PAX8-driven TPO luciferase reporter, dose response, RMG-I cells, cherry-pick (AID 687027).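 Further: luciferase reporter driven by Pax8 target thyroperoxidase promoter measured by SteadyGlo luminescence.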 Type of test: functional, cell-based. In general terms: Reporter assays use an easily measured gene product as a stand-in for the process of interest.
Test [2] deals with Vero. The test can be described thus: Vero cell cytotoxicity, cytotoxicity control for flavivirus capping enzyme inhibitors (AID 588742). Type of test: functional. The settings on record: Chlorocebus sabaeus.
The target of test [3] is Heat shock protein HSP 90-alpha (Homo sapiens, UniProt P07900). Type of test: functional, organism-based.
Test [4] addresses Aspartyl aminopeptidase (Plasmodium falciparum 3D7, UniProt Q8I2J3).
Test [5] has as its target Estrogen receptor beta (Homo sapiens, UniProt Q92731). The test can be described thus: ERβ–SRC-3 coactivator interaction inhibitors, confirmation, orthogonal assay, biochemical, ELISA, streptavidin-HRP readout (AID 1060). For orientation: An ELISA detects its analyte on a solid surface through an enzyme-linked reagent.
For test [6], the target named is Glucose-6-phosphate 1-dehydrogenase (Homo sapiens, UniProt P11413). Nature of the test: human G6PD enzyme inhibitors, dose response, selectivity assay for P. falciparum G6PD inhibitor project, biochemical, fluorescence (AID 504792). The format is functional.
Test [7] addresses Serine/threonine-protein kinase pim-2 (Homo sapiens, UniProt Q9P1W9). The format is functional.
The target of test [8] is Tyrosine-protein kinase receptor UFO (Homo sapiens, UniProt P30530). The format is functional.
The target of test [9] is Phosphorylase b kinase gamma catalytic chain, liver/testis isoform (Homo sapiens, UniProt P15735). The format is functional.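 Further: PHKG2 measured as one member of a kinome-wide kinase panel.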
In test [10] the target is Dual specificity tyrosine-phosphorylation-regulated kinase 1A (Homo sapiens, UniProt Q13627). The format is functional.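 Further: measured against DYRK1A as one member of a broad kinome profiling panel.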
Test [11] deals with Tyrosine-protein kinase JAK2 (Homo sapiens, UniProt O60674). The format is functional.
Test [12] has as its target Tyrosine-protein kinase receptor TYRO3 (Homo sapiens, UniProt Q06418). Type of test: functional.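 Further: TYRO3 value obtained as one member of a kinome-wide profiling panel.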
Test [13] concerns the target Rho-associated protein kinase 2 (Homo sapiens, UniProt O75116). The format is functional.
For test [14], the target named is Mitogen-activated protein kinase kinase kinase 20 (Homo sapiens, UniProt Q9NYL2). The format is functional.
The target in test [15] is Vascular endothelial growth factor receptor 3 (Homo sapiens, UniProt P35916). Type of test: functional.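 Further: value from a kinome-wide profiling panel, with FLT4 as the panel member.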
Test [16] deals with Casein kinase I isoform alpha (Homo sapiens, UniProt P48729). The format is functional.
For test [17], the target named is MAP kinase-activated protein kinase 5 (Homo sapiens, UniProt Q8IW41). Type of test: functional.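 Further: measured as one member of a kinome panel.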
Test [18] addresses RAC-alpha serine/threonine-protein kinase (Homo sapiens, UniProt P31749). Type of test: functional.
The target of test [19] is Protein kinase C gamma type (Homo sapiens, UniProt P05129). Type of test: functional.
The target of test [20] is High affinity nerve growth factor receptor (Homo sapiens, UniProt P04629). Type of test: functional.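 Further: NTRK1 tested as one member of a kinome-wide profiling panel.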
Test [21] deals with Serine/threonine-protein kinase pim-3 (Homo sapiens, UniProt Q86V86). Type of test: functional.
Test [22] has as its target MAP kinase-interacting serine/threonine-protein kinase 2 (Homo sapiens, UniProt Q9HBH9). Type of test: functional.
The target of test [23] is T1, Serine/threonine-protein kinase Chk1 (Homo sapiens, UniProt O14757).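 Further: measured as one member of a kinome-wide kinase profiling panel.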
T1 sequence (O14757 whole entry): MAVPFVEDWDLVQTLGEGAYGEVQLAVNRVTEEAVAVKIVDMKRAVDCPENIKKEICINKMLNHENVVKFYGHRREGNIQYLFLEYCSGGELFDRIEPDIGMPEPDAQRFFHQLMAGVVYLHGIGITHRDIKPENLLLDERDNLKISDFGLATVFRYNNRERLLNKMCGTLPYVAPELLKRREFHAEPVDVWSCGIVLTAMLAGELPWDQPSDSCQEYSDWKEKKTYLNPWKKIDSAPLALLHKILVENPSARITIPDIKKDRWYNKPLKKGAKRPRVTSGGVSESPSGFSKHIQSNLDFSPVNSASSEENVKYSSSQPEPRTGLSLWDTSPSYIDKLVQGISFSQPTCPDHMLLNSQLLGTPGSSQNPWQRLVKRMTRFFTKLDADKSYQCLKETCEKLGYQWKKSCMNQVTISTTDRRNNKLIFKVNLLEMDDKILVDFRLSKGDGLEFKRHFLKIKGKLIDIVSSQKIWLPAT
Type of test: functional.

For test [24], the target named is Vascular endothelial growth factor receptor 2 (Homo sapiens, UniProt P35968). The format is functional.
The target of test [25] is Macrophage colony-stimulating factor 1 receptor (Homo sapiens, UniProt P07333). Type of test: functional.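 Further: value comes from the Navigating the Kinome screening panel, CSF1R member.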
The target of test [26] is Proto-oncogene tyrosine-protein kinase Src (Homo sapiens, UniProt P12931). Type of test: functional.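 Further: SRC entry within a kinome-wide kinase profiling panel.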
Test [27] has as its target Tyrosine-protein kinase FRK (Homo sapiens, UniProt P42685). The format is functional.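 Further: FRK tested as one member of a kinome panel.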
Test [28] deals with cGMP-dependent protein kinase 1 (Homo sapiens, UniProt Q13976). Type of test: functional.
Test [29] has as its system BJ. Nature of the test: cytotoxicity toward BJ-TERT fibroblasts, dose response, cell-based, RAS-independent, luminescence (AID 1933). Type of test: functional. The settings on record: Homo sapiens.
Test [30] concerns BJ. The test can be described thus: cytotoxicity toward BJ-TERT-LT-ST fibroblasts, dose response, cell-based, RAS-independent, luminescence (AID 1935).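 Further: BJ fibroblasts immortalized with TERT plus LT and ST oncogenes.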 Type of test: functional. The settings on record: Homo sapiens.
Test [31] deals with T2, Sentrin-specific protease 8 (Homo sapiens, UniProt Q96LD8).
T2 sequence (Q96LD8 whole entry): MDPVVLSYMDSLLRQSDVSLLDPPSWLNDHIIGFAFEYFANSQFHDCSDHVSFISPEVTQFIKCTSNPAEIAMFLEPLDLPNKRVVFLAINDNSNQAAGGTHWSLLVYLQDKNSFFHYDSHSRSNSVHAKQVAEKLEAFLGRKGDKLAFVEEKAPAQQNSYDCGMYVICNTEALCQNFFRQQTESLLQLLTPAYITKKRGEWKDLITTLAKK
The format is functional.

Aspartyl aminopeptidase, sequence (Q8I2J3 whole entry): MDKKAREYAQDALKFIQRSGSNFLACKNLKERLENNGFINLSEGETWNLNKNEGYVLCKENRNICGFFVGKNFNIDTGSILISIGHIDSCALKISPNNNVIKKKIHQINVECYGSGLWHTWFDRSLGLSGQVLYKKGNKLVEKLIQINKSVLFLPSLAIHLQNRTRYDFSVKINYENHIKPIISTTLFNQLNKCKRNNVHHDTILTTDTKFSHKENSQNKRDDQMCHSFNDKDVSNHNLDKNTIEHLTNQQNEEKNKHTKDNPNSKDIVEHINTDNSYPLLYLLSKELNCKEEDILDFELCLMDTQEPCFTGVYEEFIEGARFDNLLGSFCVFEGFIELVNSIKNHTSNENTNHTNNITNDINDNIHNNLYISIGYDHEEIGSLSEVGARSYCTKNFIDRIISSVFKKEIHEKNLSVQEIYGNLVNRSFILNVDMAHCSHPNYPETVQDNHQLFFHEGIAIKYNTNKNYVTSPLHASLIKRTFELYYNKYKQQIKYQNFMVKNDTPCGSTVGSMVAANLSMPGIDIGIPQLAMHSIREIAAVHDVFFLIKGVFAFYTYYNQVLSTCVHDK
Tyrosine-protein kinase receptor TYRO3, sequence (Q06418 whole entry): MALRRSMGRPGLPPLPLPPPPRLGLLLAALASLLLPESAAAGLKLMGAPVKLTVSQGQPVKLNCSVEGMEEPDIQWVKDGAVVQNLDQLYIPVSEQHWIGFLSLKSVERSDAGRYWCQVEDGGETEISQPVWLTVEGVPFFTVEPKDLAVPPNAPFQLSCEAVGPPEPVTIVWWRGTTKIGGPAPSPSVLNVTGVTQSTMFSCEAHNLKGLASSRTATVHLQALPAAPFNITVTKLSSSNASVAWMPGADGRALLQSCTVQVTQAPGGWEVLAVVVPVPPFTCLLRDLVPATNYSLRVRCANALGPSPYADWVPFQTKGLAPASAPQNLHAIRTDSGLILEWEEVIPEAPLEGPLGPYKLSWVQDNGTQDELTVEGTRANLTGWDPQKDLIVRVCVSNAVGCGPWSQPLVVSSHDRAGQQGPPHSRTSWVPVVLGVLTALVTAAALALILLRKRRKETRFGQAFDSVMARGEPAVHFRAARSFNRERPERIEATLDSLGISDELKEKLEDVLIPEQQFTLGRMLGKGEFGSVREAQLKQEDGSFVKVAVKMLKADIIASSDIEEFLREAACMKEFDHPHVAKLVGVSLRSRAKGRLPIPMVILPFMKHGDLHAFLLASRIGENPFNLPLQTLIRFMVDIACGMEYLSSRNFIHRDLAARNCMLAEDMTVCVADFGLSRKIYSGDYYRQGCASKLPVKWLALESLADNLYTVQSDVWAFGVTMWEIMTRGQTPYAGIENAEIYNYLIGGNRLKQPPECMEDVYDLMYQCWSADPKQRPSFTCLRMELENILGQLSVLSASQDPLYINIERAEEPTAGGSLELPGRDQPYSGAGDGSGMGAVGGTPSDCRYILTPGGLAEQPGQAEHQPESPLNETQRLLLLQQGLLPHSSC
Mitogen-activated protein kinase kinase kinase 20, sequence (Q9NYL2 whole entry): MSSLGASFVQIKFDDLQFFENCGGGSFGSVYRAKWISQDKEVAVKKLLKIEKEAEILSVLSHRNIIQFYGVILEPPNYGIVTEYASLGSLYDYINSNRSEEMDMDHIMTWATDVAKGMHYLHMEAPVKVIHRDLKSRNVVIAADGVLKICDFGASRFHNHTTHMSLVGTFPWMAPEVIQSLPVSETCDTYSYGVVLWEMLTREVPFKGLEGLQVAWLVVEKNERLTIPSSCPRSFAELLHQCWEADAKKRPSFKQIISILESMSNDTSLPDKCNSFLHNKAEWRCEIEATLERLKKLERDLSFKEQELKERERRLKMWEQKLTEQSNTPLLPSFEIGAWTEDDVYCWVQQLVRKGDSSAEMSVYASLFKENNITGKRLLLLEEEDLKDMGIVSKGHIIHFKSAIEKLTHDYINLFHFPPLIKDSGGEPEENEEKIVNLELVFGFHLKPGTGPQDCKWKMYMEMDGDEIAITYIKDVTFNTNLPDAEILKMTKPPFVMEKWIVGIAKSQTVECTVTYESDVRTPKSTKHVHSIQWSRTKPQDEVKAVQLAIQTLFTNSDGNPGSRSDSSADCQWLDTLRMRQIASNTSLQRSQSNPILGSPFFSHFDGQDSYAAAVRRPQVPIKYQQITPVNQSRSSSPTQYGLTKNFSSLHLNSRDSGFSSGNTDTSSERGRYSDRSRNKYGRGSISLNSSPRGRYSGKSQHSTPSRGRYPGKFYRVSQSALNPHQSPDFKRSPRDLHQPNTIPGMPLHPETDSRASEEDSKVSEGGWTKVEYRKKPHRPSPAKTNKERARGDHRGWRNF
Casein kinase I isoform alpha, sequence (P48729 whole entry, canonical isoform): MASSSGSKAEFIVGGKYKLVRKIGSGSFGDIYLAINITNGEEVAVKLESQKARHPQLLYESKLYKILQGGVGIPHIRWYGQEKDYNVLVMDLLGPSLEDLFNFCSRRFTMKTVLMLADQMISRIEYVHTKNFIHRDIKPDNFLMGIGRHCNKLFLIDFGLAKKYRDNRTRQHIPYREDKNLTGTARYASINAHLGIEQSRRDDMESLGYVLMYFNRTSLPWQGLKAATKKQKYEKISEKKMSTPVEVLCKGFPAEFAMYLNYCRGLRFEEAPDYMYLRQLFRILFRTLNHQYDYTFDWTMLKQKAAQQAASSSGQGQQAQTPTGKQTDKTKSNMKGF
Serine/threonine-protein kinase pim-2, sequence (Q9P1W9 whole entry): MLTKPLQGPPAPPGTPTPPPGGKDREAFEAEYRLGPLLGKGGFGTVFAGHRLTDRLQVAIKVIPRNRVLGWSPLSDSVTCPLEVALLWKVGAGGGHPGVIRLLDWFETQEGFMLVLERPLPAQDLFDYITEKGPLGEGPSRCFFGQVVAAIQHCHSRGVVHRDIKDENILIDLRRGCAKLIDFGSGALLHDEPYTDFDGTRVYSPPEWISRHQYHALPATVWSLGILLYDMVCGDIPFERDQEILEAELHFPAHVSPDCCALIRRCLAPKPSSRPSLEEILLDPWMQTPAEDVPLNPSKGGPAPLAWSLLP
Estrogen receptor beta, sequence (Q92731 whole entry): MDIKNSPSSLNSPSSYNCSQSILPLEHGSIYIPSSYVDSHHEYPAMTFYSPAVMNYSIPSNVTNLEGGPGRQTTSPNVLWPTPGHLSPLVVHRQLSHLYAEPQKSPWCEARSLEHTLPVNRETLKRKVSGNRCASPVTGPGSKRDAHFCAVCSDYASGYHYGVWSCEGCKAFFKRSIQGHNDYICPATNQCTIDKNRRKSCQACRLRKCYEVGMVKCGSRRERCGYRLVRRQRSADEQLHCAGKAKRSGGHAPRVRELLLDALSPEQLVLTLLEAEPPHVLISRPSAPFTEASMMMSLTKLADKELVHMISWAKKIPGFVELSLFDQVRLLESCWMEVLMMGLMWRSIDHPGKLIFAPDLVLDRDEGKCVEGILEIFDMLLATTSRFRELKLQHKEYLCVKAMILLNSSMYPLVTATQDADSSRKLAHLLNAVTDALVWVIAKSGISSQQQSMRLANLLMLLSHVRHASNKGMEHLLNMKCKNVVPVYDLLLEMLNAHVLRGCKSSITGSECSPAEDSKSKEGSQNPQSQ
Tyrosine-protein kinase receptor UFO, sequence (P30530 whole entry, canonical isoform): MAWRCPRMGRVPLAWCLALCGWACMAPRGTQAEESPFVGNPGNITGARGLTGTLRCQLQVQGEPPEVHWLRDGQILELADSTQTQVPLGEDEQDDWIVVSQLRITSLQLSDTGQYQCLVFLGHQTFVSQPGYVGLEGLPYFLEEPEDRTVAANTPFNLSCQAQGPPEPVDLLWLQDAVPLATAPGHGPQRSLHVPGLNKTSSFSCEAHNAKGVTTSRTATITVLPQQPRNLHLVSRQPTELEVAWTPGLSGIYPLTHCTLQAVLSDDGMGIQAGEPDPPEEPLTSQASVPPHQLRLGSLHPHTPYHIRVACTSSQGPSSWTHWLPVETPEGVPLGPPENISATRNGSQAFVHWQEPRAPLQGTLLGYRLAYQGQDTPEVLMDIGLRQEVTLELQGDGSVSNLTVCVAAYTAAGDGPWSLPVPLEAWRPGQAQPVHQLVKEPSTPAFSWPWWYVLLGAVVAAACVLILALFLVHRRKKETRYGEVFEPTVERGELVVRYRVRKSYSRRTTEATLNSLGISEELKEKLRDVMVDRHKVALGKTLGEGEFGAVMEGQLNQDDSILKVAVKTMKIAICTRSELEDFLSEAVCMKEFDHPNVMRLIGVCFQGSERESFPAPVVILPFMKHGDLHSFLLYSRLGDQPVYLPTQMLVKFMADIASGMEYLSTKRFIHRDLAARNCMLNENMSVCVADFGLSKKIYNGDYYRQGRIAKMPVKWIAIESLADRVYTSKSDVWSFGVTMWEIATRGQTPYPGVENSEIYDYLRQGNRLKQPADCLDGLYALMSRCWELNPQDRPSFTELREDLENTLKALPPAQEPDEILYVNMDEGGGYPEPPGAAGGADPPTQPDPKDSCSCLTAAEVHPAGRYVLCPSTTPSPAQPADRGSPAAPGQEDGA
MAP kinase-activated protein kinase 5, sequence (Q8IW41 whole entry): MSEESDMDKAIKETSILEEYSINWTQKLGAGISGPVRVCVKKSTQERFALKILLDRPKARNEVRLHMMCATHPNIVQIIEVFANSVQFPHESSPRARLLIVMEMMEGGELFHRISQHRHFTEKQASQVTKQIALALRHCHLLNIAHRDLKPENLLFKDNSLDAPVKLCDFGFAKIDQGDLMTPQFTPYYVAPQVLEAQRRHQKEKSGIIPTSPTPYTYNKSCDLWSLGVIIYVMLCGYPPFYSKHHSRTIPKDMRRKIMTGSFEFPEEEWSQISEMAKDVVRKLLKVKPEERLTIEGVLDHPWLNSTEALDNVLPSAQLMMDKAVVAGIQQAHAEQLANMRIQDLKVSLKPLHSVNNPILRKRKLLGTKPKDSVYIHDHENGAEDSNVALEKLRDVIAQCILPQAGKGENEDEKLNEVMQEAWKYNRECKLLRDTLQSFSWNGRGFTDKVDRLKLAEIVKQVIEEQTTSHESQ

Take `CC(=O)N(C1=C(Cl)C(=O)c2ccccc2C1=O)C1CCCCC1`: the AC50 was 2.74 µM (active) in [1] and 0.524 µM (active) in test [3]. In addition, the CC50 in [2] was 22.4 µM (active).
Take `Oc1ccc(-c2cn3c(n2)SCC3)cc1O`: the concentration for half-maximal inhibition (IC50) was 1.55 µM (active) in test [4], 10.7 µM (not active) in test [5] and 41 µM (inactive) in [6].
`O=C1Nc2ccc3ncsc3c2C1=CNc1ccc(S(=O)(=O)Nc2ccccn2)cc1`: the Ki in [7] is 1 µM (active); in test [8] it was 0.02 µM (active); in test [9], 0.158 µM (active); in test [10], 0.00794 µM (active); in test [11] it was 0.158 µM (active); in [12], 0.126 µM (active). The Ki was 0.0501 µM (active) in test [13]; 0.2 µM (active) in test [14]; 0.00316 µM (active) in [15]; 0.794 µM (active) in test [16]; 0.398 µM (active) in [17]; > 7.94 µM (inactive) in [18]. Also, the Ki was 1.26 µM (active) in test [19]; 0.02 µM (active) in [20]; 1.26 µM (active) in [21]; 0.126 µM (active) in test [22]; 0.158 µM (active) in [23]; 0.0251 µM (active) in test [24]. Further, the Ki is 0.251 µM (active) in [25], 0.158 µM (active) in [26], 0.0316 µM (active) in test [27] and 0.126 µM (active) in test [28].
With `Cc1ccc(NC2=C/C(=N\S(=O)(=O)c3cccs3)c3ccccc3C2=O)c(C)c1`, the figures for the EC50 in test [29] and in test [30] were 2.51 µM (active) and 4.42 µM (inconclusive), respectively.
On to `COc1ccc(/C=N/NC(=O)c2nn(-c3ccccc3)c(=O)c3c(N)scc23)cc1`, for which the IC50 in [31] was 0.346 µM (active).
